Where two headings read alike, the source gives them in different places.
How the values were obtained:
[1] = Liver triphosphate pharmacokinetics after single oral dose in CD-1 mice; assay type: in vivo; set-up: key: + ≤ 15; 15 < ++ ≤ 50; 50 < +++ ≤ 100; 100 < ++++; BLQ = below limit of quantitation; conditions: single oral dose 10 mg/kg in PEG 200;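 for Ms Liver TP AUC: pmol·h/g liver normalized to a 1 µmol/kg dose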;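 for Ms Liver TP Cmax: pmol/g liver normalized to a 1 µmol/kg dose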
Method: Internal standard solution was added to the homogenate followed by neutralization with 20% ammonium hydroxide solution and addition of 500 μL 1% formic acid. The tissue samples were extracted by weak anion exchange solid phase extraction (SPE). Post extraction, the eluates were evaporated under nitrogen, followed by reconstitution before injection onto the LC-MS/MS system.

HCV genotype 1b replicon = assay: HCV replicon assay (Zluc luciferase); assay type: cell-based; conditions: Zluc cells, 72 hours, read-out: HCV Replicon EC50
Method: Huh-7-derived cell line (Zluc) that harbors an HCV genotype 1b replicon and a luciferase reporter gene was grown in Dulbecco's Modified Eagle Medium (DMEM) supplemented with 10% fetal bovine serum, 2 mM GlutaMAX, 1% MEM nonessential amino acids, 100 IU/mL penicillin, 100 μg/mL streptomycin, and 0.5 mg/mL Geneticin® (G418). For dose response testing the cells were seeded in 96-well plates at 7.5×10^3 cells per well in a volume of 50 μL, and incubated at 37° C./5% CO2. Drug solutions were made up freshly in Huh-7 media as 2× stocks. Ten additional 5-fold dilutions were prepared from these stocks in DMEM without G418. At least three hours after Zluc cells were seeded, drug treatment was initiated by adding 50 μL of drug dilutions to the plates in duplicate. Final concentrations of drug ranged from 100 μM to […]. Cells were then incubated at 37° C./5% CO2. Alternatively, compounds were tested at two concentrations (1 μM and 10 μM). […] For this, media was removed from the plates via gentle tapping. Fifty microliters of ONE-glo luciferase assay reagent was added to each well. The plates were shaken gently for 3 min at room temperature and luminescence was measured on a Victor^3 V 1420 multilabel counter (Perkin Elmer) with a 1 second read time using a 700 nm cut-off filter. The EC50 values were calculated from dose response curves from the resulting best-fit equations determined by Microsoft Excel and XLfit 4.1 software. When screening at two fixed concentrations, the results were expressed as % inhibition at 1 μM and 10 μM.

in vitro = conditions: human
[2] = Plasma nucleoside pharmacokinetics after single oral dose in CD-1 mice; assay type: in vivo; conditions: single oral dose 10 mg/kg in PEG 200;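 for Ms Plasma nucleoside AUC: pmol·h/mL plasma normalized to a 1 µmol/kg dose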
Method: Plasma samples were analyzed for nucleoside by LC-MS/MS. The internal standard (IS) was either 2′-MeG-D3 or tiapride. For protein precipitation and extraction, each plasma sample (50 μL) was treated with 500 μL of 0.2% formic acid in acetonitrile and 20 μL of the internal standard working solution. After vortexing and centrifugation, 500 μL of the sample extracts were transferred to a new plate, dried under N2 at ˜28° C. and reconstituted with 75 μL of 0.2% FA in water. The extracts were chromatographed on an Aquasil C18 column using a gradient system of 0.2% formic acid in water and acetonitrile. The analytes were detected and quantified by tandem mass spectrometry in positive ion mode on an MDS Sciex API5000 equipped with a Turbo Ionspray® interface. The calibration range was 0.500 (LLOQ) to 200 ng/mL in mouse plasma.

[3] = Stability in intestinal microsomes; assay type: in vitro ADME; conditions: human intestinal microsomes 1.0 mg/mL, 10 μM, NADPH, 60 min
Method: (§1) Stability of test compounds were determined in human liver and intestinal microsomes in duplicate for each matrix. Pooled liver and intestinal microsomal proteins (1.0 mg/mL), suspended in incubation buffer (100 mM potassium phosphate, pH 7.4, 5 mM MgCl2, and 0.1 mM EDTA), were preincubated for 5 min at 37° C. with 10 μM of a test compound from a 10 mM stock solution in DMSO (final DMSO concentration was 0.1%); the reaction was initiated by the addition of NADPH (3 mM final concentration). At specific times (0 and 60 min), 0.1 mL samples were taken and the reaction terminated by the addition of 4 volumes of stop solution (acetonitrile with 500 ng/mL carbutamide as an internal standard). The samples were vortexed for 30 sec and then centrifuged at 16000×g for 10 min. 100 μL of supernatants were transferred to 96 deep-well plates preloaded with 100 μL distilled water and analyzed after mixing by LC-MS/MS. The MS peak area ratio of the test compound versus the internal standard was calculated and percent unchanged test compound over 60 minutes was calculated using this ratio.

Huh-7 cells = assay: Release of active metabolite in Huh-7 cells; assay type: in vitro ADME
Method: Huh-7 cells were plated in 1 mL culture medium (DMEM, containing glucose, L-glutamine and sodium pyruvate, 10% FBS, 100 IU/mL penicillin, 100 μg/mL streptomycin, 2 mM GlutaMAX, 1% MEM non-essential amino acids) at the concentration 0.8, 0.4 and 0.2 million cells per well on 6 well plates for 24, 48 and 72 hr treatment, respectively. Plated cells were incubated overnight at 37° C. in an incubator.
The following morning test compound was diluted to 20 μM from a stock solution in DMSO in fresh culture medium pre-warmed to 37° C. and 1 mL of the solution/well was added to cells. A final medium volume per well was 2.0 mL, test compound concentration in well was 10 μM and final DMSO concentration was 0.1%.
After 24, 48 or 72 hr, the medium was carefully removed and cell monolayers were washed twice with 2 mL ice-cold PBS per well. Following the last wash, all PBS was carefully removed and 1.0 mL of extraction solution (ice-cold 70% methanol) added. The plate was tightly covered with Parafilm, plastic plate cover and Parafilm again and an intracellular content was extracted at −20° C. for 24 hr.
After 24 hr the extracts were transferred into polypropylene microfuge tubes and dry on a refrigerated centrivap concentrator. Dry residues were reconstituted in 250 μL of HPLC-grade water and centrifuged at 16,000×g for 10 min. Aliquots (100 μL each) of the supernatants were transferred into a 96 well plate and internal standard (4 ng/mL final concentration) was added as the internal standard (IS) for LC-MS/MS analysis.

[4] = Stability in liver microsomes; assay type: in vitro ADME; conditions: human liver microsomes 1.0 mg/mL, 10 μM, NADPH, 60 min
Method: as §1

Structure (SMILES) | Ms Liver TP AUC [1] | Ms Liver TP Cmax [1] | EC50 (HCV genotype 1b replicon; Hepatitis C virus, 72 h) [µM] | CC50 (in vitro) [µM] | Ms Plasma nucleoside AUC [2] | Ms Plasma nucleoside Cmax [2] | HIM (1 hr) stability (percent remaining) [3] | Huh-7 TP AUC (Huh-7 cells; 10 μM) | Huh-7 TP Cmax (Huh-7 cells; 10 μM test compound) | Huh-7 TP (24 hr) (Huh-7 cells; 10 μM, 24 hr) | Huh-7 TP (48 hr) (Huh-7 cells; 10 μM, 48 hr) | Huh-7 TP (72 hr) (Huh-7 cells; 10 μM, 72 hr) | HLM (1 hr) stability (percent remaining) [4] | EC50 (HCV genotype 1b replicon) [µM]
CCOc1nc(N)nc2c1ncn2[C@@H]1O[C@H](COP(=O)(N[C@@H](C)C(=O)OC(C)C)Oc2ccccc2)[C@@H](O)[C@@]1(C)Cl (single isomer, unassigned) [Compound 17ii Diastereomer 1] | BLQ | BLQ | 1 to 10 | > 50 | – | – | – | – | – | – | – | – | – | –
CC(C)OP1(=O)OC[C@H]2O[C@@H](n3ccc(=O)[nH]c3=O)[C@](C)(Cl)[C@@H]2O1 (single isomer, unassigned) [Compound 37 Diastereomer 1] | ++++ (1500 < ++++) | ++++ (100 < ++++) | 1 to 10 | > 50 | +++ (500 < +++ ≤ 1500) | +++ (50 < +++ ≤ 100) | – | – | – | – | – | – | – | –
CC(C)OC(=O)[C@H](C)NP(=O)(OC[C@H]1O[C@@H](n2ccc(=O)[nH]c2=O)[C@](C)(Cl)[C@@H]1O)Oc1ccccc1 (single isomer, unassigned) [Compound 40ii Diastereomer 1] | +++ (500 < +++ ≤ 1500) | +++ (50 < +++ ≤ 100) | – | > 50 | +++ (500 < +++ ≤ 1500) | +++ (50 < +++ ≤ 100) | +++ (50% < +++ ≤ 75%) | ++++ (1500 < ++++) | ++++ (100 < ++++) | ++ (15 < ++ ≤ 50) | +++ (50 < +++ ≤ 100) | ++++ (100 < ++++) | + (+ ≤ 25%) | 1 to 10
CC(C)(C)C(=O)SCCOP1(=O)OC[C@H]2O[C@@H](n3ccc(N)nc3=O)[C@](C)(Cl)[C@@H]2O1 (single isomer, unassigned) [Compound 61 Diastereomer 1] | +++ (500 < +++ ≤ 1500) | +++ (50 < +++ ≤ 100) | < 0.25 | > 50 | + (+ ≤ 150) | ++++ (100 < ++++) | – | – | – | – | – | – | – | –
CCOC(=O)NCC(C)(C)C(=O)SCCOP1(=O)OC[C@H]2O[C@@H](n3ccc(=O)[nH]c3=O)[C@](C)(Cl)[C@@H]2O1 (single isomer, unassigned) [Compound 70 Single Diastereomer] | ++++ (1500 < ++++) | ++++ (100 < ++++) | < 0.25 | > 50 | ++++ (1500 < ++++) | ++++ (100 < ++++) | – | – | – | – | – | – | – | –
CC(C)(C)C(=O)SCCOP1(=O)OC[C@H]2O[C@@H](n3ccc(=O)[nH]c3=O)[C@](C)(Cl)[C@@H]2O1 (single isomer, unassigned) [Compound 201 Single Diastereomer] | ++++ (1500 < ++++) | ++++ (100 < ++++) | < 0.25 | > 50 | +++ (500 < +++ ≤ 1500) | +++ (50 < +++ ≤ 100) | – | – | – | – | – | – | – | –
CCCCOC(=O)[C@@H](C)NP(=O)(OC[C@H]1O[C@@H](n2ccc(=O)[nH]c2=O)[C@](C)(Cl)[C@@H]1O)Oc1ccccc1 (single isomer, unassigned) [Compound 202i Diastereomer 1] | ++++ (1500 < ++++) | ++++ (100 < ++++) | – | > 50 | ++++ (1500 < ++++) | ++++ (100 < ++++) | – | – | – | – | – | – | – | 1 to 10
C[C@@H](NP(=O)(OC[C@H]1O[C@@H](n2ccc(=O)[nH]c2=O)[C@](C)(Cl)[C@@H]1O)Oc1ccccc1)C(=O)OCc1ccccc1 (single isomer, unassigned) [Compound 205i Diastereomer 1] | ++++ (1500 < ++++) | ++++ (100 < ++++) | – | > 50 | +++ (500 < +++ ≤ 1500) | +++ (50 < +++ ≤ 100) | – | – | – | – | – | – | – | 1 to 10
CC(C)OC(=O)[C@H](C)NP(=O)(OC[C@H]1O[C@@H](n2ccc3c(N)ncnc32)[C@](C)(Cl)[C@@H]1O)Oc1ccccc1 (single isomer, unassigned) [Compound 208ii Diastereomer 1] | BLQ | BLQ | > 10 | > 50 | – | – | – | – | – | – | – | – | – | –
C[C@@]1(Cl)[C@H](O)[C@@H](CO)O[C@H]1n1ccc(=O)[nH]c1=O [Compound 301, 2′-C-Chloro-2′-C-methyluridine] | BLQ | BLQ | > 10 | > 50 | +++ (500 < +++ ≤ 1500) | +++ (50 < +++ ≤ 100) | – | – | – | – | – | – | – | –
CCOc1nc(N)nc2c1ncn2[C@@H]1O[C@H](CO)[C@@H](O)[C@@]1(C)Cl [Compound 304] | – | – | > 10 | > 50 | – | – | – | – | – | – | – | – | – | –
C[C@@]1(Cl)[C@H](O)[C@@H](CO)O[C@H]1c1ccc2c(N)ncnn12 [Compound 305] | – | – | > 10 | > 50 | – | – | – | – | – | – | – | – | – | –
C[C@@]1(Cl)[C@H](O)[C@@H](CO)O[C@H]1n1ccc(N)nc1=O [Compound 306] | – | – | > 10 | > 50 | – | – | – | – | – | – | – | – | – | –

Source: patent publication US10513534B2, “2′-chloro nucleoside analogs for HCV infection” (priority 2012, dated 2019)
